Results on 5 compounds are retold here after patent US6353015B1, “Method of treating neurodegenerative disorders” (St. Elizabeth's Medical Center, priority 1998, dated 2002).

As a reminder, the melting point is the temperature of the solid-liquid transition.

“Also recorded” adds a separate entry of the source. Where two headings read alike, the source gives them in different places. No end group written: not given here.

Data set [1] relates to AF64A-treated rats. To be noted: rat, in vivo; for Correct responses, % Learning test / Correct responses, % Retention test: po.
In data set [2] the test system is cerebellar granule cells. The data set can be described thus: βAP 25-35 toxicity assay in mature cerebellar granule cell cultures (Example 5). Conditions: for protective effect against the toxicity of βAP 25-35 (in words): mature cultures, 8 DIV; for protection of neurons against βAP: compound at 25 μM; for increase of the amount of living CGC, compound alone: concentration range 25-200 μM. Type of data set: cell-based, rat. As to the method: FIG. 8. […] The difference in numbers of living neurons before and after 4 days of treatment were determined. The amount of viable neurons is expressed as mean (%) above viable in preliminary photography of the same place. Experiments were repeated 2-3 times (n=12-18). For graphical presentation, average data from representative experiments were converted to percentages of control groups viability. Results were expressed as a percentage of survival cells to compare with control ±SEM and were analyzed by a statistical test (ANOVA).
Cerebellar granule cells (CGC) were prepared from the postnatal rats (7-8 days old) by the following procedure based on the generally accepted methods (V. Gallo et al., J. Neurosci. 7:2203-2213, 1987). The pieces of cerebellum were digested with 0,25 mg/ml trypsin for 25 min. at 37° C. and incubated for 5 min. in 0.1% soybean trypsin inhibitor. After washing, cells were dissociated by triturating. Following two centrifugation-resuspension steps, the cells were plated at a density of 2.5-[…] cells per ml on polylysine-coated 24-well plates (Corning) and maintained at 37° C. in a humidified incubator with 5% CO2/95% room air. The medium was composed of Eagle's minimal essential medium and fetal calf serum (10%) supplemented with 20 mM potassium chloride, 10 mM glucose, 2 mM glutainine, 50 μg/ml gentamycin sulfate. Cytosine arabinoside (10 μM) was added 24-48 h later to prevent the replication of non-neuronal cells.
The βAP 25-35 (Bachem) was dissolved by sonication in sterilized distilled water at a concentration of 1 mM. […]
Neuronal viability was evaluated by morphometric cell counting using the presence of neurites and smooth, round cell bodies as criteria of survival. The cells were examined under the phase-contrast microscope Axiovert 25C with videocamera and Software miroMedia PCTV VideoCap program for image scanning and photography. Cell survival was quantified by counting the number of viable neurons in premarked microscope fields prior to, and 4 days after the exposure. The difference in numbers of living neurons before and after 4 days of treatment was determined.
For each experiment, we used 4-6 separate wells of a 24-well multiwell plate for control (with 0.05% DMSO)and for each concentration of compound or composition of compound with βAP. Each well equals one observation, (average of 25 cells per microscope field). Experiments are repeated 2-3 times (n=12-18). For graphical presentation, average data from representative experiments were expressed as a percentage of survival cells in comparison with control ±SEM and analyzed by ANOVA and Student t-test.

Data set [3] is described as follows: Antihypertensive effect. To be noted: in vivo.
The test system of data set [4] is AF64A-treated rats. As to the kind of experiment: Two-way shuttle box avoidance, learning and retention tests (Example 3). Type of data set: in vivo, rat.
Data set [5] deals with mouse. The data set can be described thus: Mouse tail suspension test. Conditions: in vivo. The text has this:
The combination of cognition-enhancing and antidepressant effect in the one and the same compound might be of additional therapeutic advantage.

Data set [6] relates to AF64A-treated rats. As to the kind of experiment: Morris water maze test. It counts as in vivo, rat. Conditions: 0.3 mg/kg daily orally; day 1 and day 5. As to the method:
FIGS. 7A and 7B Average swim latency made by rats, when trained 1 (A) and […] to find a platform in Morris water maze test. […] Results were estimated as time required for rat felt into a water pool to reach a platform;**−[…], ***−p<0.001 vs. AF64A-treated group, where p is the significance level (post hoc ANOVA).
The test was started 2 days after the last injection of tested compounds and was performed daily for the period from 3 to 9 day. Round swimming pool (1,8 m diameter and 0,45 m high) with 22° C. water was placed in the center of the room. The platform was located 1 cm below the surface of the water. Starting points for the swims were at the cardinal compass points (N, S, E, W), which were selected in a semi-random fashion for each rat on each trial.
Each experimental group, i.e., control, AF64A-treated groups and groups for each concentration of the tested compounds, contained 9-11 rats. Results were estimated as time required for rat felt into a water pool to reach a platform (a sum of two trials from different position every day). Data were analyzed as the mean±SEM. (ANOVA followed by post hoc comparisons).

For data set [7], the system named is Cerebellar granule cells (CGC). As to the kind of experiment: Survival of cerebellar granule cells with amyloid beta-protein (Example 4). Type of data set: cell-based, rat. Also noted: dose or concentration left out as unconfirmed. To be noted: 72 hr. As to the method: Cerebellar granule cells (CGC) obtained from brains of 8-day rat pups were maintained in culture. The amyloid beta-protein (βAP) and/or NAS derivative (DNAS-18) were added to CGC for a period of 72 hr. Vehicle solution was added to CGC in the control experiments. Survival of CGS was assessed by lactate dehydrogenase method and by visual counting of living neurons.

The test system of data set [8] is rats. The data set can be described thus: Observation of sedative effect during oral treatment.
The conditions of data set [9]: in rats; Oxenkrug et al. 1994; cited from earlier work.
Setting [10] is: 3 mg/kg p.o. for 12 days after AF64A i.c.v. 3 nmol/ventricle.

`CCC(=O)NCCc1c[nH]c2ccc(OCc3ccccc3)cc12` [CA-15, N-[2-(5-Benzyloxyindol-3-yl)ethyl]propanamide] returned a melting point of 110 to 112 °C. In addition, in data set [1], the “cognitive performance of AF64A-treated rats in active avoidance and in water-maze tests (summary)” value (shortened to “cognitive performance”) is reported as “improve cognitive performance”; the “performance in learning paradigm of the active avoidance test (in words)” value (from here on “performance in learning paradigm”) is recorded as “strong tendency (although not reaching the level of statistical significance) towards the improvement”; the “performance in retention paradigm of the active avoidance test (in words)” value (“performance in retention paradigm” below) is listed as “improved the performance”. Further, in data set [1] (3 mg/kg), the “Correct responses, % Learning test” value was found to be 61.4 ± 7.4% and the “Correct responses, % Retention test” value stood at 68.0 ± 8.4 %. The “protective effect against the toxicity of βAP 25-35 (in words)” value (“protective effect against the toxicity” for short) in data set [2] (4 days) is “exerted a neuroprotective effect; also recorded: Protective effect”. Also, in [3], the antihypertensive effect entry is on record as “antihypertensive”. For the same compound, the “duration of cognition-enhancing effect in retention test after the learning trials” value in data set [4] (3 mg/kg p.o. for 12 days after AF64A) is no less than 10 days. In data set [4] (setting [10]), the “number of correct responses, learning test (in words)” value is “almost completely restored” and the “number of correct responses, retention test (in words)” value is recorded as “almost completely restored”. Besides, in data set [5], the “antidepressant-like activity (decreasing the duration of immobility)” value is “antidepressant-like effects”.
In turn, `CCCC(=O)NCCc1c[nH]c2ccc(OCc3ccccc3)cc12` [CA-18, N-[2-(5-Benzyloxyindol-3-yl)ethyl] butanamide] came in with a melting point of 112 to 114 °C. In addition, in [1], the “cognitive performance” value was “improve cognitive performance”; the “performance in learning paradigm” value is reported as “completely restored; also recorded: strong tendency (although not reaching the level of statistical significance) towards the improvement”. Moreover, in data set [1] (0.3 mg/kg), the “Correct responses, % Learning test” value turned out to be 84.0 ± 5.4 % and the “Correct responses, % Retention test” value is listed as 82.7 ± 5.0 %. In data set [1] (1 mg/kg), the “Correct responses, % Learning test” value was 50.0 ± 8.8% and the “Correct responses, % Retention test” value was found to be 48.1 ± 9.8%. For the same compound, in data set [2] (25 μM βAP), the “protection of neurons against βAP” value is given as 93%. Besides, in data set [2] (4 days), the “protective effect against the toxicity” value is on record as “exerted a neuroprotective effect”. For the same compound, in data set [3], the antihypertensive effect entry is on record as “antihypertensive”. Also, in data set [6], the “response time (swim latency to platform)” value was “decreased the response time”. Moreover, in data set [5], the “antidepressant-like activity (decreasing the duration of immobility)” value was “antidepressant-like effects” and the “antidepressant-like activity, comparison CA-18 with CA-15” value was “more pronounced”. In addition, in data set [7], the “viability of neurons, compound added to βAP” value is listed as 98±4 % of control. For the same compound, the “increase of viability of CGC neurons, compound alone” value in [7] (mean±S.E.) is recorded as 18±3 % of control. Besides, in [8] (0.3 mg/kg orally daily), the sedative effect entry was “did not induced sedation”. The sedative effect result in data set [8] (1 mg/kg orally daily) is recorded as “did not induced sedation”.
As to `COc1ccc2[nH]cc(CCNC(C)=O)c2c1` [Melatonin, reference compound], in [1], the “cognitive performance” value was “improve cognitive performance”; the “performance in learning paradigm” value is reported as “completely restored; also recorded: significant but somewhat less pronounced”; the “performance in retention paradigm” value is given as “completely restored; also recorded: significant but somewhat less pronounced”. Further, in data set [1] (0.3 mg/kg), the “Correct responses, % Learning test” value was found to be 79.0 ± 6.0 % and the “Correct responses, % Retention test” value turned out to be 83.2 ± 3.2 %. For the same compound, in data set [1] (3 mg/kg), the “Correct responses, % Learning test” value is on record as 75.4 ± 7.0 % and the “Correct responses, % Retention test” value is given as 72.2 ± 5.8 %. Besides, in [2], the “comparative efficacy in preventing βAP toxicity” value was “less effective” and the “increase of the amount of living CGC, compound alone” value is on record as 3-10 % of control. Further, the “protection of neurons against βAP” value in data set [2] (25 μM βAP) was 90%. Also, the “protective effect against the toxicity” value in data set [2] (4 days) was “Protective effect”. Besides, in [2] (4 days, listed as melatonin), the “protective effect against the toxicity” value was “exerted a neuroprotective effect”. For the same compound, in data set [6], the “response time (swim latency to platform)” value is recorded as “decreased the response time”. Moreover, in data set [8] (0.3 mg/kg orally daily), the sedative effect result is reported as “did not induced sedation”. Moreover, in [8] (3 mg/kg orally daily), the “onset of sedative effect” value was 3-4 days of treatment and the sedative effect result is on record as “unspecified sedative effect”.
Take `CC(=O)NCCc1c[nH]c2ccc(O)cc12` [NAS, N-acetylserotonin]: in [9], the “conversion of NAS into melatonin” value was “rapidly converted into melatonin”. Also, in data set [1], the “cognitive performance” value was “improve cognitive performance”; the “performance in learning paradigm” value is on record as “improved the performance”; the “performance in retention paradigm” value is “not in retention”. In data set [1] (1 mg/kg), the “Correct responses, % Learning test” value was 65.4 ± 8.8 % and the “Correct responses, % Retention test” value amounted to 56.0 ± 9.2 %. Besides, in [2], the “comparative efficacy in preventing βAP toxicity” value is recorded as “strongest” and the “increase of the amount of living CGC, compound alone” value was 16-28 % of control. Further, in data set [2] (25 μM compound), the “viable neurons, co-incubation with βAP” value is 101±5 % of control. Also, in [2] (4 days), the “protective effect against the toxicity” value is listed as “exerted a neuroprotective effect; also recorded: Protective effect”.
Consider GSNKGAIIGLM [βAP, reference compound], for which the “viability of neurons exposed to βAP alone” value in [2] (25 μM βAP, 4 days, mean ±SEM) is on record as 58±7 % of control. In addition, in [7] (βAP, mean±S.E.), the “viability of CGC neurons with βAP alone” value is 56±8 % of control.
